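Values below derive from 48-hour exposures of cells grown in 96-well plates, with endpoints linearly interpolated between the two concentrations bracketing the appropriate inhibition level. Here, GI50 denotes the concentration required for 50% inhibition of growth. Definition used: TGI = concentration required for complete inhibition of growth.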

Among the test systems are OVCAR-4 ovarian; SF-539 CNS; TK-10 renal; HOP-62 NSCLC; LOX IMVI melanoma; 786-0 renal; NCI-H522 lung; A549 NSCLC; RXF 393 renal; NCI/ADR-RES ovarian.
Common to all, as to assay: growth of human tumour cells (NCI), 48 h

Turning to `N#Cc1ccc(C#Cc2ccccc2C#CCCCCO)cc1`, the GI50 in the experiment on OVCAR-4 ovarian was 26.2 µM; in the experiment on SF-539 CNS it was 17.5 µM; with TK-10 renal, 16.5 µM; in the experiment on HOP-62 NSCLC, 11.7 µM; with LOX IMVI melanoma, 18.3 µM; in the experiment on 786-0 renal, 4.39 µM. The GI50 in the experiment with NCI-H522 lung was 16.1 µM; in the experiment with A549 NSCLC, 14.4 µM; with RXF 393 renal, 7.05 µM; with NCI/ADR-RES ovarian, 17.7 µM. Moreover, the TGI with OVCAR-4 ovarian was 65.9 µM; with SF-539 CNS, 32 µM; in the experiment on TK-10 renal, 33.5 µM; in the experiment on HOP-62 NSCLC, 24 µM; in the experiment with LOX IMVI melanoma it was 32.5 µM; in the experiment with 786-0 renal, 18.1 µM. For the same compound, the TGI in the experiment with NCI-H522 lung amounted to 31.1 µM; in the experiment with A549 NSCLC it was 27.9 µM; with RXF 393 renal, 24.4 µM; in the experiment on NCI/ADR-RES ovarian, 36.9 µM.

`C[C@]12CC[C@H](O)CC1=CC[C@@H]1[C@@H]2CC[C@]2(C)C(c3cccnc3)=CC[C@@H]12`: the GI50 with OVCAR-4 ovarian was 95.2 µM; with SF-539 CNS, 8.31 µM; with TK-10 renal it was above 100 µM; with HOP-62 NSCLC, 18.4 µM; in the experiment with LOX IMVI melanoma it was above 100 µM; in the experiment with 786-0 renal, 5.18 µM. In addition, the GI50 is 10.1 µM in the experiment with NCI-H522 lung, above 100 µM in the experiment with A549 NSCLC, 3.32 µM in the experiment with RXF 393 renal and 38.4 µM with NCI/ADR-RES ovarian. Also, the TGI in the experiment with OVCAR-4 ovarian, in the experiment on SF-539 CNS, in the experiment on TK-10 renal, with HOP-62 NSCLC, with LOX IMVI melanoma and in the experiment with 786-0 renal was above 100 µM each time. Further, the TGI is above 100 µM in the experiment on NCI-H522 lung, above 100 µM with A549 NSCLC, 19 µM in the experiment with RXF 393 renal and above 100 µM with NCI/ADR-RES ovarian.

For the origin of these results see PubChem BioAssay (NCI).
